Measurements: US20120165319A1, “INHIBITORS OF INTERLEUKIN-1 BETA CONVERTING ENZYME” (VERTEX PHARMACEUTICALS INCORPORATED, priority 1995, published 2012)

Target: T1, ICE (Homo sapiens, UniProt P29466)
T1 sequence (P29466 120-297 limits assumed): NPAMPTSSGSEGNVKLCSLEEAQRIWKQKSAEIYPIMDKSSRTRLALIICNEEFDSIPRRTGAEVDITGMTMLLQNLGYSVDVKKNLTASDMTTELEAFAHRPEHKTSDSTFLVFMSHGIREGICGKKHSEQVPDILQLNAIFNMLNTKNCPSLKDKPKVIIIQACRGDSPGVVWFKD
T1 sequence (P29466 317-404 limits assumed): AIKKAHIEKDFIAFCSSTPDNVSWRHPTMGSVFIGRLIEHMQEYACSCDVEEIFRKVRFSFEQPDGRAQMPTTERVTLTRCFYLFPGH
Experiment: Enzyme assay with UV-visible substrate (visible ICE assay, Succinyl-Tyr-Val-Ala-Asp-pNitroanilide)
Assay type: biochemical
Settings: Table 5
Experimental: 1. Enzyme Assay with Uv-Visible Substrate
This assay is run using an Succinyl-Tyr-Val-Ala-Asp-pNitroanilide substrate. Synthesis of analogous substrates is described by L. A. Reiter (Int. J. Peptide Protein Res. 12, 87-96 (1994)). The assay mixture contains:
The visible ICE assay is run in a 96-well microtiter plate. Buffer, ICE and DMSO (if inhibitor is present) are added to the wells in the order listed. The components are left to incubate at room temperature for 15 minutes starting at the time that all components are present in all wells. The microtiter plate reader is set to incubate at 37° C. After the 15 minute incubation, substrate is added directly to the wells and the reaction is monitored by following the release of the chromophore (pNA) at 405-603 nm at 37° C. for 20 minutes. A linear fit of the data is performed and the rate is calculated in mOD/min. DMSO is only present during experiments involving inhibitors, buffer is used to make up the volume to 100 μl in the other experiments.
For determination of enzyme inhibition constants (Ki) or the mode of inhibition (competitive, uncompetitive or noncompetitive), the rate data determined in the enzyme assays at varying inhibitor concentrations are computer-fit to standard enzyme kinetic equations (see I. H. Segel, Enzyme Kinetics, Wiley-Interscience, 1975).

| Ki [nM] | SMILES |
| --- | --- |
| 50 | C[S+](CC(=O)[C@H](CC(=O)O)NC(=O)[C@@H]1CCCN2C(=O)CC[C@H](NC(=O)c3ccccc3)C(=O)N12)Cc1ccccc1Cl (stereo partly shown) [Compound 281] |
| 280 | CN(C)S(=O)(=O)N[C@H]1CCC(=O)N2CCC[C@@H](C(=O)N[C@H](C=O)CC(=O)O)N2C1=O [Compound 428] |
| 7000 | N[C@H]1CCC(=O)N2CCC[C@@H](C(=O)N[C@H](C=O)CC(=O)O)N2C1=O [Compound 429] |
| 40 | O=C[C@H](CC(=O)O)NC(=O)[C@@H]1CCCN2C(=O)CC[C@H](NC(=O)c3cccc(F)c3)C(=O)N12 [Compound 462] |
| 140 | O=C[C@H](CC(=O)O)NC(=O)[C@@H]1CCCN2C(=O)CC[C@H](NC(=O)/C=C/c3ccncc3)C(=O)N12 [Compound 472] |
| 85 | CC(=O)c1ccc(C(=O)N[C@H]2CCC(=O)N3CCC[C@@H](C(=O)N[C@H](C=O)CC(=O)O)N3C2=O)cc1 [Compound 474] |
| 60 | O=C[C@H](CC(=O)O)NC(=O)[C@@H]1CCCN2C(=O)CC[C@H](NC(=O)c3ccc(O)c(CN4CCOCC4)c3)C(=O)N12 [Compound 477] |
| 380 | NS(=O)(=O)c1ccc(C(=O)N[C@H]2CCC(=O)N3CCC[C@@H](C(=O)N[C@H](C=O)CC(=O)O)N3C2=O)cc1 [Compound 478] |
| 43 | O=C[C@H](CC(=O)O)NC(=O)[C@@H]1CCCN2C(=O)CC[C@H](NC(=O)Cc3ccccc3)C(=O)N12 [Compound 495] |
| 1000 | O=C[C@H](CC(=O)O)NC(=O)CN1C(=O)[C@@H](NC(=O)c2ccccc2)CN(C(=O)OC2CCOC2)c2ccccc21 (stereo partly shown) [Compound 605q] |
| 33 | Cc1cccc(CC(=O)N2C[C@H](NC(=O)c3ccccc3)C(=O)N(CC(=O)N[C@H](C=O)CC(=O)O)c3ccccc32)c1 [Compound 605t, (3S)-3-[(3S)-2-Oxo-3-benzoylamino-5-(3-methylphenylacetyl)-2,3,4,5-tetrahydro-1H-1,5-benzodiazepin-1-acetylamino]-4-oxo-butyric acid] |
| 300 | CC(=O)N1C[C@H](NC(=O)c2ccc3ccccc3n2)C(=O)N(CC(=O)N[C@H](C=O)CC(=O)O)c2ccccc21 [Compound 619] |
| 9 | CC(=O)N1C[C@H](NC(=O)c2ccc3cc(OC(=O)c4ccc5cc(O)ccc5c4)ccc3c2)C(=O)N(CC(=O)N[C@H](C=O)CC(=O)O)c2ccccc21 [Compound 623] |
| 300 | CC(=O)N1C[C@H](NC(=O)c2ccsc2)C(=O)N(CC(=O)N[C@H](C=O)CC(=O)O)c2ccccc21 [Compound 624] |
| 105 | CC(=O)N1C[C@H](NC(=O)c2sc(C)nc2C)C(=O)N(CC(=O)N[C@H](C=O)CC(=O)O)c2ccccc21 [Compound 625] |
| 260 | CC(=O)N1C[C@H](NC(=O)c2cccc(O)c2C)C(=O)N(CC(=O)N[C@H](C=O)CC(=O)O)c2ccccc21 [Compound 626] |
| 230 | CC(=O)N1C[C@H](NS(=O)(=O)c2ccccc2)C(=O)N(CC(=O)N[C@H](C=O)CC(=O)O)c2ccccc21 [Compound 629] |
| 270 | CC(=O)N1C[C@H](NC(=O)Cc2ccccc2)C(=O)N(CC(=O)N[C@H](C=O)CC(=O)O)c2ccccc21 [Compound 630] |
| 805 | CC(=O)N1C[C@H](NS(=O)(=O)Cc2ccccc2)C(=O)N(CC(=O)N[C@H](C=O)CC(=O)O)c2ccccc21 [Compound 631] |
| 148 | CC(=O)N1C[C@H](NC(=O)/C=C/c2ccccc2)C(=O)N(CC(=O)N[C@H](C=O)CC(=O)O)c2ccccc21 [Compound 632] |
| 1400 | CC(=O)N1C[C@H](NC(=O)O[C@H]2CCOC2)C(=O)N(CC(=O)N[C@H](C=O)CC(=O)O)c2ccccc21 [Compound 634] |

Same assay, conditions: Table 17

| Ki [nM] | SMILES |
| --- | --- |
| 3000 | CO/N=C/[C@H](CC(=O)O)NC(=O)[C@@H]1CCCN2C(=O)CC[C@H](NC(=O)c3ccc(OC)cc3)C(=O)N12 [Compound 308c, [3S(1S,9S)3-(9-(4-Methoxybenzoyl)amino-6,10-dioxo-1,2,3,4,7,8,9,10-octahydro-6H-pyridazino[1,2-a][1,2]diazepine-1-carboxamido)-amino]-4-oxobutanoic acid, O-methyl oxime] |
| 3000 | COc1ccc(C(=O)N[C@H]2CCC(=O)N3CCC[C@@H](C(=O)N[C@H](/C=N/OCc4ccccc4)CC(=O)O)N3C2=O)cc1 [Compound 308d, [3S(1S,9S)3-(9-(4-Methoxybenzoyl)amino-6,10-dioxo-1,2,3,4,7,8,9,10-octahydro-6H-pyridazino[1,2-a][1,2]diazepine-1-carboxamido)-amino]-4-oxobutanoic acid, O-benzyl oxime] |
| 150 | CC(=O)NCC(=O)N1C[C@H](NC(=O)c2cccc3ccccc23)C(=O)N(CC(=O)N[C@H](C=O)CC(=O)O)c2ccccc21 [Compound 645, (3S)-3-[(3S)-2-Oxo-3-(1-naphthoyl)amino-5-(2-acetamido)acetyl-2,3,4,5-tetrahydro-1H-1,5-benzodiazepine-1-acetylamino]-4-oxo-butyric acid] |
| 275 | CC(=O)N1C[C@H](NC(=O)/C=C/c2ccc(Cl)c(Cl)c2)C(=O)N(CC(=O)N[C@H](C=O)CC(=O)O)c2ccccc21 [Compound 700] |
| 90 | CC(=O)N1C[C@H](NC(=O)C(=O)c2cccs2)C(=O)N(CC(=O)N[C@H](C=O)CC(=O)O)c2ccccc21 [Compound 701] |
| 180 | CC(=O)N1C[C@H](NC(=O)CCc2ccc3c(c2)OCO3)C(=O)N(CC(=O)N[C@H](C=O)CC(=O)O)c2ccccc21 [Compound 707] |
| 140 | CC(=O)N1C[C@H](NC(=O)/C=C/c2ccc3c(c2)OCO3)C(=O)N(CC(=O)N[C@H](C=O)CC(=O)O)c2ccccc21 [Compound 708] |
| 110 | CC(=O)N1C[C@H](NC(=O)C(=O)Nc2ccc(Cl)cc2)C(=O)N(CC(=O)N[C@H](C=O)CC(=O)O)c2ccccc21 [Compound 710] |
| 175 | CC(=O)N1C[C@H](NC(=O)C(=O)c2ccco2)C(=O)N(CC(=O)N[C@H](C=O)CC(=O)O)c2ccccc21 [Compound 711] |
| 65 | O=C[C@H](CC(=O)O)NC(=O)[C@@H]1CCCN2C(=O)CCN(NC(=O)C(=O)c3cccs3)C(=O)N12 [Compound 1107] |
| 80 | O=C[C@H](CC(=O)O)NC(=O)[C@@H]1CCCN2C(=O)CCN(NC(=O)C(=O)c3ccc4c(c3)OCO4)C(=O)N12 [Compound 1109] |
| 45 | COc1ccc(C(=O)C(=O)NN2CCC(=O)N3CCC[C@@H](C(=O)N[C@H](C=O)CC(=O)O)N3C2=O)cc1 [Compound 1110] |
| 290 | O=C[C@H](CC(=O)O)NC(=O)[C@@H]1CCCN2C(=O)CCN(NC(=O)CCc3ccc(Cl)cc3)C(=O)N12 [Compound 1113] |
| 125 | O=C[C@H](CC(=O)O)NC(=O)[C@@H]1CCCN2C(=O)CCN(NC(=O)CCc3ccc4c(c3)OCO4)C(=O)N12 [Compound 1114] |

Same assay, conditions: Table 27

| Ki [nM] | SMILES |
| --- | --- |
| 200 | COCC(=O)N1C[C@H](NC(=O)c2cc(C)c(O)c(C)c2)C(=O)N(CC(=O)N[C@H](/C=N/OCc2c(Cl)cccc2Cl)CC(=O)O)c2ccccc21 [Compound 688c, (3S)-3-[(3S)-2-Oxo-3-(3,5-dimethyl-4-hydroxybenzoyl)amino-5-methoxyacetyl-2,3,4,5-tetrahydro-1H-1,5-benzodiazepine-1-acetylamino]-4-oxobutyric acid, O-2,6-dichlorobenzyl oxime] |
| 0.5 | O=C[C@H](CC(=O)O)NC(=O)CN1C(=O)[C@@H](NC(=O)c2nccc3ccccc23)CN(C(=O)CO)c2cc(F)ccc21 [Compound 696-1, (3S)-3-[(3S)-2-oxo-3-isoquinolin-1-oylamino-5-hydroxyacetyl-2,3,4,5-tetrahydro-7-fluoro-1H-1,5-benzodiazepine-1-acetylamino]-4-oxobutyric acid] |
| 0.5 | O=C[C@H](CC(=O)O)NC(=O)CN1C(=O)[C@@H](NC(=O)c2nccc3ccccc23)CN(C(=O)CO)c2cc(Cl)ccc21 [Compound 696-2, (3S)-3-[(3S)-2-Oxo-3-isoquinolin-1-oylamino-5-hydroxyacetyl-2,3,4,5-tetrahydro-7-chloro-1H-1,5-benzodiazepine-1-acetylamino]-4-oxobutyric acid] |
| 1.1 | COCC(=O)N1C[C@H](NC(=O)c2nccc3ccccc23)C(=O)N(CC(=O)N[C@H](C=O)CC(=O)O)c2ccccc21 [Compound 699, (3S)-3-[(3S)-2-Oxo-3-isoquinolin-1-oylamino-5-methoxyacetyl-2,3,4,5-tetrahydro-1H-1,5-benzodiazepine-1-acetylamino]-4-oxobutyric acid] |
| 2.7 | COC(=O)N1C[C@H](NC(=O)c2ccc(O)c(Cl)c2)C(=O)N(CC(=O)N[C@H](C=O)CC(=O)O)c2ccccc21 [Compound 720] |
| 300 | CC(=O)O[C@@H](C)C(=O)N1C[C@H](NC(=O)c2cc(C)c(O)c(C)c2)C(=O)N(CC(=O)N[C@H](C=O)CC(=O)O)c2ccccc21 [Compound 726] |
| 300 | CC(=O)OC(C)(C)C(=O)N1C[C@H](NC(=O)c2cc(C)c(O)c(C)c2)C(=O)N(CC(=O)N[C@H](C=O)CC(=O)O)c2ccccc21 [Compound 728] |
| 150 | CC(=O)N[C@@H](CCC(=O)O)C(=O)N[C@H]1CN(C(=O)CO)c2ccccc2N(CC(=O)N[C@H](C=O)CC(=O)O)C1=O [Compound 731] |
